The record followed here is PubChem BioAssay (NCI).

Experiment in all cases: DTP human tumour cell line panel, 48 h
The subject of experiment [1] is DU-145 prostate.
Experiment [2] relates to A498 renal.
For experiment [3], the system named is COLO 205 colon.
Experiment [4] concerns IGROV1 ovarian.
Experiment [5] relates to MALME-3M melanoma.
For experiment [6], the system named is HOP-92 NSCLC.
Experiment [7] relates to SK-MEL-28 melanoma.
The test system of experiment [8] is SW-620 colon.

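All cell lines were grown in 96-well plates and treated with compound for 48 hours. GI50 marks 50% less growth. TGI denotes the concentration required for complete inhibition of growth.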

As to `COc1ccccc1/C=C\C(=O)c1ccccc1`, the GI50 in experiment [1] was 8.38 µM; in experiment [2] it was 16.3 µM; in experiment [3], 11.9 µM; in experiment [4], 5.14 µM; in experiment [5], 12.9 µM; in experiment [6], 11.9 µM. Also, the TGI was found to be 20.5 µM in experiment [1]; 35.7 µM in experiment [2]; 24.3 µM in experiment [3]; 18.1 µM in experiment [4]; 26.2 µM in experiment [5]; 31.5 µM in experiment [6].
In the case of `CCN(CC)CCOc1ccc(/C=C2\CC3C4CC=C5C[C@@H](OC(C)=O)CC[C@]5(C)C4CC[C@]3(C)C2=O)cc1OC` (some centres undefined), the GI50 was 3.87 µM in experiment [1]; 3.01 µM in experiment [2]; 15.9 µM in experiment [3]; 4.65 µM in experiment [4]; 1.96 µM in experiment [5]; 13.3 µM in experiment [6]. For the same compound, the TGI in experiment [1] was 16.6 µM; in experiment [2] it was 11.6 µM; in experiment [3], over 100 µM; in experiment [4] it was 16.4 µM; in experiment [5] it was 3.47 µM; in experiment [6], 37.7 µM.
For the compound `COc1ccc(-c2nc3c(c(=O)n2C(C)=O)C(c2ccc(Cl)cc2)c2sc4c(Cl)cccc4c2O3)cc1` (centres undefined), the GI50 in experiment [7] is 1.15 µM; in experiment [1] it was 0.394 µM; in experiment [8] it was 0.376 µM; in experiment [3] it was 0.355 µM; in experiment [4], 0.512 µM; in experiment [5], 0.409 µM. Also, the GI50 in experiment [6] was 1.33 µM. Besides, the TGI in experiment [7] was 3.39 µM; in experiment [1], 1.96 µM; in experiment [8], 1.75 µM; in experiment [3] it was 1.32 µM; in experiment [4], 3.12 µM; in experiment [5] it was 2.62 µM. The TGI in experiment [6] was found to be 4.58 µM.
`COc1ccc2[nH]c3c(=O)[nH]ncc3c2c1`: the TGI in experiment [7], in experiment [8], in experiment [2], in experiment [3], in experiment [4] and in experiment [5] was over 100 µM in each case. This compound also returned a TGI in experiment [6] of over 100 µM.
For the compound `O=C(Nc1cc(S(=O)(=O)c2ccc(Cl)cc2)ccc1Cl)c1cc(I)cc(I)c1O`, the GI50 in experiment [7] is 9.38 µM; in experiment [1], 17.2 µM; in experiment [8] it was 16.7 µM; in experiment [2], 15.3 µM; in experiment [3], 15.8 µM; in experiment [4], 20 µM. For the same compound, in experiment [5], the GI50 is 21.1 µM. Also, the TGI in experiment [7] was 24.6 µM; in experiment [1] it was 30.9 µM; in experiment [8], 32 µM; in experiment [2] it was 31.6 µM; in experiment [3] it was 29.6 µM; in experiment [4] it was 37.7 µM. In addition, the TGI in experiment [5] worked out at 48.5 µM.
For the compound `O=C(Nc1ccccc1O)c1ccc(CNC(=O)c2ccsc2Nc2ccnc(C(F)(F)F)c2)cc1`, the GI50 in experiment [7] was 2.15 µM; in experiment [1], 2.12 µM; in experiment [8] it was 2.5 µM; in experiment [2] it was 0.787 µM; in experiment [3], 3.4 µM; in experiment [4] it was 2.8 µM. For the same compound, the GI50 in experiment [5] was 1.7 µM. Moreover, the TGI in experiment [7] came to 6.79 µM; in experiment [1], 5.67 µM; in experiment [8], 10.5 µM; in experiment [2], 3.01 µM; in experiment [3], 13.4 µM; in experiment [4] it was 13.5 µM. The compound further yielded a TGI in experiment [5] of 6.65 µM.
As for `COc1ccc2c(c1)nc1n2C(c2ccc(F)cc2)SC1` (centres undefined), the GI50 in experiment [1] was 15.2 µM; in experiment [8], 32.3 µM; in experiment [3], 16 µM; in experiment [4] it was 26.5 µM; in experiment [5] it was 23.5 µM; in experiment [6], 23 µM. Further, the TGI in experiment [1] is over 100 µM; in experiment [8] it was over 100 µM; in experiment [3] it was 37.4 µM; in experiment [4], 99.4 µM; in experiment [5], 63 µM; in experiment [6], over 100 µM.
As to `CCOCNc1ccc(N2C(=O)/C(=C/c3ccc(N(CC)CC)cc3)N=C2c2ccccc2)cc1`, the GI50 was over 100 µM in experiment [7]; over 100 µM in experiment [1]; 41.5 µM in experiment [8]; 35.4 µM in experiment [2]; 86.6 µM in experiment [3]; 24.8 µM in experiment [5]. Besides, the GI50 in experiment [6] was 2.25 µM. The TGI in experiment [7], in experiment [1], in experiment [8], in experiment [2], in experiment [3] and in experiment [5] was over 100 µM in each case. The compound further yielded a TGI in experiment [6] of 12 µM.
Turning to `CC1(C)C2CCC13C(=O)C1OC3(C2)C2C(=O)c3c(O)cccc3C(=O)C12` (centres undefined), the GI50 was 3.58 µM in experiment [7]; 0.196 µM in experiment [1]; 1.89 µM in experiment [2]; 4.09 µM in experiment [3]; 0.29 µM in experiment [5]; 0.566 µM in experiment [6]. Also, the TGI in experiment [7] was 21.1 µM; in experiment [1], 0.386 µM; in experiment [2], 3.49 µM; in experiment [3] it was 16.1 µM; in experiment [5] it was 1.02 µM; in experiment [6] it was 1.89 µM.
With `COc1ccc(NC(=O)c2sc3nc4c(cc3c2N)CCCC4)cc1`, the GI50 in experiment [7] was 15.2 µM; in experiment [1] it was 0.982 µM; in experiment [8], 0.429 µM; in experiment [2] it was 0.237 µM; in experiment [3], 0.876 µM; in experiment [4], 0.929 µM. In addition, the GI50 in experiment [6] is 10.6 µM. Besides, the TGI was over 100 µM in experiment [7]; over 100 µM in experiment [1]; over 100 µM in experiment [8]; 1.73 µM in experiment [2]; 6.46 µM in experiment [3]; over 100 µM in experiment [4]. In experiment [6], this compound yielded a TGI of 76.3 µM.
As for `CCC(=O)c1cc([N+](=O)[O-])c(Br)s1`, the GI50 was 4.17 µM in experiment [7]; 4.31 µM in experiment [1]; 1.65 µM in experiment [8]; 17.3 µM in experiment [2]; 1.99 µM in experiment [3]; 1.85 µM in experiment [5]. In experiment [6], the GI50 was 1.96 µM. Besides, the TGI in experiment [7] worked out at 15.2 µM; in experiment [1], 13.3 µM; in experiment [8] it was 3.19 µM; in experiment [2], 31.3 µM; in experiment [3], 3.56 µM; in experiment [5], 3.87 µM. Besides, the TGI in experiment [6] was 4.8 µM.

For orientation: GI50 means the concentration giving 50% growth inhibition. Broadly, the TGI is the concentration giving total growth inhibition. The low end stands for greater sensitivity of the cells, the high end for lower sensitivity of the cells.
